Data published in patent publication US20070161704A1, “Pharmaceutical composition useful for treating chronic myeloid leukemia” (COUNCIL OF SCIENTIFIC AND INDUSTRIAL RESEARCH, priority 2002, published 2007).
Entries after “also recorded” stand apart in the source; their conditions may differ.

Columns and labels:
[1] = system: normal human peripheral blood mononuclear cells (HPBMC); experiment: Cytokine production by HPBMC (ELISA); format: cell-based; conditions: for Concentration of Cytokines: IFN-γ / Concentration of Cytokines: IL-2 / Concentration of Cytokines: IL-6: HPBMC, 18 hrs
Description: Supernatants were collected and quantitated for IL-2, IFN-γ, IL-6 by commercial ELISA.

[2] = system: Bcr-Abl positive CML cell line (K562); experiment: Cell count assay, viable cells by trypan blue exclusion; format: cell-based, human
Procedure: Cell count assays were performed by plating cells in the presence of regular growth medium with or without indicated amount of extract, FIG. 2(a), fraction, FIG. 2(b), purified compound, FIG. 2(e), and its sodium salt, FIG. 2 (d). Each day, viable cells were counted as assessed by exclusion of try pan blue, FIG. 2(e).

[3] = system: STI571-resistant K562 cells (K562-R); experiment: Proliferation by [3H]thymidine uptake; format: cell-based, human; conditions: 48 h, graded concentrations, FIG. 6
Procedure: (§1) FIG. 6. […] K562 and K562-R cells were incubated with graded concentrations of ST1571 (A) or NaChl (B) for 48 h, proliferation was then determined by [^3H] thymidine uptake.
K562 cells were incubated with increasing concentrations of STI571 (received as gift in the form of Gleevec from a CML patient receiving Gleevec therapy), and surviving cells were collected by centrifugation and treated with 2-fold higher concentrations of STI571 (Donato, N. J. et al. Blood, 101:690-698, 2003).
(§2) K562 and STI571-resistant K562 cells (K562-R) were incubated with graded concentrations of ST1571 or NaChl for 48 hours, proliferation was then determined by [^3H]thymidine uptake.

K562 xenografts = experiment: In vivo studies on K562 xenografts in nude mice; parameters: species or system mouse; conditions: 25-150 mg/kg intraperitoneally once a day for 10 days, FIG. 5
Procedure: FIG. 5. K562 cells embedded in Matrigel were staged in nude mice until tumors reached 200-300 mm^3. PBS (●), NaChl (25 mg/kg, □; 100 mg/kg, A; 150 mg/kg, ∘) were administered intraperitoneally once a day for ten days.
In vivo studies on K562 xenografts: K562 cells were suspended to 5×10^7 cells/ml in matrigel (BD Biosciences, Mountain View, Calif.; 1 volume of cells with 1 volume of cold Matrigel). Nude female mice 6 to 7 weeks of age were given injections of 0.2 ml of this suspension. Animals were left untreated until K562 xenografts reached 200-300 mm^3. […] Phosphate buffered saline (PBS, 0.2 ml per mouse) was used as a control. Animal studies were conducted under an approved institutional Animal Care and Use Committee protocol.

[4] = system: PBMC of Bcr-Abl negative CML patients; experiment: Apoptosis by flow cytometry (annexin V-FITC/PI); format: cell-based, human; conditions: 67.5 nmole/10^5 cells, 6 h, FIG. 3a
Procedure: (§3) FIG. 3(a). Cells were left untreated (NT) or incubated with NaChl (67.5 nmole/10^5 cells) for 6 h and processed for flow cytometry after staining with annexin V-FITC and PI. Viable cells are in the lower left quadrant. Apoptotic cells stained by annexin V are in the lower right quadrant. Late stage apoptotic cells stained by both annexin V and PI are in the upper right quadrant.
(§4) Measurement of apoptosis by flow cytometry. Cells were left untreated or treated with NaChl (67.5 nmole/10^5 cells) for 6 h. After washing, cells were stained with fluorescein isothyocyanate (FITC) conjugated Annexin V and propidium iodide (PI) and analysed in a flow cytometer (FACS Calibur, Beckton Dickinson, USA).

normal PBMC = experiment: Apoptosis by flow cytometry (annexin V-FITC/PI); format: cell-based, human; conditions: 67.5 nmole/10^5 cells, 6 h, FIG. 3a
Procedure: as §3, §4

K562 cells [5] = experiment: Apoptosis by flow cytometry (annexin V-FITC/PI); format: cell-based, human; conditions: 67.5 nmole/10^5 cells, 6 h, FIG. 3a
Procedure: as §3, §4

[6] = system: PBMC of Bcr-Abl positive CML patients; experiment: Apoptosis by flow cytometry (annexin V-FITC/PI); format: cell-based, human; conditions: 67.5 nmole/10^5 cells, 6 h, FIG. 3a
Procedure: as §3, §4

[7] = target: T1, Bcr-Abl protein tyrosine kinase (Homo sapiens, UniProt P00519); experiment: Abl phosphorylation status by flow cytometry and immunoblot; format: cell-based; conditions: 3 h, anti-phospho-c-Abl (Tyr245), FIG. 4a, 4b
T1 construct: triggering apoptosis of Bcr-Abl expressing CML cell line K562; BCR N-terminal portion (natural fusion partner, P11274); endogenous in cells; host or cells: Ph+ cells: K562 and PBMC of Bcr-Abl positive CML patients; the other entry of the earlier key: BCR (P11274, Breakpoint cluster region protein)
Procedure: FIG. 4(a) Flow cytometric determination of Abl phosphorylation status. Cells were left untreated (NT) or incubated with NaChl (T) for 3 h, permeabilized and stained with rabbit anti-phospho-c-Abl (Tyr245) antibody. Dotted line, staining with normal rabbit IgG; solid line, staining with immune IgG.
(§5) FIG. 4(b) Immuno-blot-based determination of Abl phosphorylation status. Cells were harvested, lysed, equivalent amount Iysates were separated by SDS-P AGE and electrotransferred. The filters were probed with anti-phospho-c-Abl (Tyr 245) (upper panels) or anti-c-Abl antibody (middle panels).
(§6) Immunoblot assay. Cells were harvested, lysed, equivalent amount of lysates were separated by SDS-PAGE and electro-transferred. The filters were probed with anti-caspase-3 antibody (B.D. Pharmingen), anti-c-Abl antibody or anti-phospho-c-Abl antibody (Cell Signaling Technology).
(§7) Flow cytometric determination of Abl phosphorylation or Abl expression status. Cells were permeabelysed, stained with rabbit anti-phospho-c-Abl antibody, anti-c-Abl antibody or control rabbit antibody and analysed in a flow cytometer.

[8] = system: Bcr-Abl negative CML patients PBMC; experiment: Viability of CML patients' PBMC; format: cell-based, human; conditions: 67.5 nmole/10^5 cells, FIG. 2e; listed as NaChl
Procedure: (§8) FIG. 2. […] The flow diagram of purification is shown. […] Cell count assays were performed by plating cells in the presence of regular growth medium with or without indicated amount of extract, FIG. 2(a), fraction, FIG. 2(b), purified compound, FIG. […], and its sodium salt, FIG. 2 (d). Each day, viable cells were counted as assessed by exclusion of try pan blue, FIG. […]. Viability of PBMC obtained from three Ph^+ CML patients and one Ph^− CML patient after treatment with Na-Chl (67.5 nmole/10^5 cells), FIG. 2(f), Morphological changes of K562 cells after treatment with NaChl (67.5 nmole/10^5 cells) for 6 h (phase contrast micrographs, ×400).
(§9) Culture of Bcr-Abl positive CML cell line (K562), peripheral blood cells of CML patients, Bcr-Abl-negative ALL cell line (Molt-4) and peripheral blood cells of CML patients. Cell count assays were performed by plating cells in the presence of regular growth medium with or without indicated amount of extract, fraction, purified compound and its sodium salt. Each day, viable cells were counted as assessed by exclusion of trypan blue.

[9] = system: Philadelphia chromosome (Bcr-Abl) positive CML patients PBMC; experiment: Viability of CML patients' PBMC; format: cell-based, human; conditions: 67.5 nmole/10^5 cells, FIG. 2e; listed as NaChl
Procedure: as §8, §9

[10] = system: PBMC of Bcr-Abl negative CML patients; experiment: Immunoblot detection of caspase 3 activation; format: cell-based, human; conditions: 24 h, FIG. 3d
Procedure: (§10) FIG. 3(d). Treatment with NaChl leads to activation of procaspase-3 in Ph+ cells. Cells were left untreated or treated with NaChl (T) for 24 h. Cells were harvested, lysed, equivalent amount of lysates were separated by SDS-PAGE and electrotransferred. The filters were probed with anti-caspase-3 that recognize both procaspase3 (32 Kda, upper band) and caspase-3 cleavage product (17 Kda, lower band).
as §6

K562 cells [11] = experiment: Immunoblot detection of caspase 3 activation; format: cell-based, human; conditions: 24 h, FIG. 3d
Procedure: as §10, §6

PBMC of normal donors = experiment: Immunoblot detection of caspase 3 activation; format: cell-based, human; conditions: 24 h, FIG. 3d
Procedure: as §10, §6

[12] = system: PBMC of Bcr-Abl (Ph) positive CML patients; experiment: Immunoblot detection of caspase 3 activation; format: cell-based, human; conditions: 24 h, FIG. 3d
Procedure: as §10, §6

K562 cells [13] = experiment: DNA cell cycle analysis (PI staining); format: cell-based, human; conditions: 1 or 2 days culture, FIG. 3b
Procedure: (§11) FIG. 3(b). Treatment with NaChl results in early cell cycle arrest followed by apoptosis in Ph^+ cells. Cells were cultured in the presence or absence of NaChl. After 1 or 2 days in culture, cells were collected, permeabilized, and stained with PI for DNA content analysis. Gates were set to assess the percentages of dead (<2n DNA, M1). G0/G1 (2n DNA, M2), and S+G2+M (>2n DNA, M3) cells.
(§12) DNA cell cycle analysis. Cells were cultured with NaChl as described in example 5. After 1 or 2 days culture, cells were collected, permeabilized and stained with PI for DNA cell cycle analysis.

[14] = system: PBMC of Bcr-Abl positive CML patients; experiment: DNA cell cycle analysis (PI staining); format: cell-based, human; conditions: 1 or 2 days culture, FIG. 3b
Procedure: as §11, §12

Molt-4 cells [15] = experiment: Confocal microscopy, Annexin V staining; format: cell-based; conditions: Molt-4, FIG. 3c
Procedure: (§13) FIG. 3(e). Fluorescence images of K562 and Molt-4 cells after treatment with NaChl followed by staining with annexin V-Allexa™ staining with annex in V are shown in left panels and bright filed phase contrast views are shown in right panels.
(§14) Confocal microscopy. K562 and Molt-4 cells were treated with NaChl followed by staining with Annexin-V -Allexa™ as described in example 5, and allowed to adhere onto poly-L-lysine-coated coverslips for 10 min. Representative fields of cells were analysed with a Leica TCS SP2 confocal laser scanning microscope (Heidelberg, Germany).

K562 cells [16] = experiment: Confocal microscopy, Annexin V staining; format: cell-based, human; conditions: K562, FIG. 3c
Procedure: as §13, §14

K562 cells [17] = experiment: Morphology analysis by phase contrast microscopy; format: cell-based, human; conditions: 67.5 nmole/10^5 cells, 6 h, FIG. 2f
Procedure: as §8
Morphology analysis of Bcr-Abl positive CML cell line K562 by phase contrast microscopy. Cells were left untreated (NT) or treated with NaChl (Nachl; 67.5 nmole/10^5 cells) and viewed under phase contrast microscope (magnification ×400).

Molt-4 cells [18] = experiment: Apoptosis by flow cytometry (annexin V-FITC/PI); format: cell-based; conditions: 67.5 nmole/10^5 cells, 6 h, FIG. 3a
Procedure: as §3, §4

[19] = system: STI571-sensitive K562 cells; experiment: Proliferation by [3H]thymidine uptake; format: cell-based, human; conditions: 48 h, graded concentrations, FIG. 6
Procedure: as §1, §2

Molt-4 cells [20] = experiment: Immunoblot detection of caspase 3 activation; format: cell-based; conditions: 24 h, FIG. 3d
Procedure: as §10, §6

Abl protein = experiment: Abl expression status by flow cytometry and immunoblot; format: cell-based, human; conditions: anti-c-Abl antibody, FIG. 4b, 4c
Description: as §5
FIG. 4(c) Flow cytometric determination of Abl expression status. Cells were permeabilized and stained with rabbit anti-c-Abl antibody. Dotted line, staining with normal rabbit IgG; solid line, staining with immune IgG.
as §6, §7

[21] = PHA 2.5 μg/ml + LPS 1.0 μg/ml + Chl 25 μg/ml

T1 sequence (P00519 28-1130 limits assumed): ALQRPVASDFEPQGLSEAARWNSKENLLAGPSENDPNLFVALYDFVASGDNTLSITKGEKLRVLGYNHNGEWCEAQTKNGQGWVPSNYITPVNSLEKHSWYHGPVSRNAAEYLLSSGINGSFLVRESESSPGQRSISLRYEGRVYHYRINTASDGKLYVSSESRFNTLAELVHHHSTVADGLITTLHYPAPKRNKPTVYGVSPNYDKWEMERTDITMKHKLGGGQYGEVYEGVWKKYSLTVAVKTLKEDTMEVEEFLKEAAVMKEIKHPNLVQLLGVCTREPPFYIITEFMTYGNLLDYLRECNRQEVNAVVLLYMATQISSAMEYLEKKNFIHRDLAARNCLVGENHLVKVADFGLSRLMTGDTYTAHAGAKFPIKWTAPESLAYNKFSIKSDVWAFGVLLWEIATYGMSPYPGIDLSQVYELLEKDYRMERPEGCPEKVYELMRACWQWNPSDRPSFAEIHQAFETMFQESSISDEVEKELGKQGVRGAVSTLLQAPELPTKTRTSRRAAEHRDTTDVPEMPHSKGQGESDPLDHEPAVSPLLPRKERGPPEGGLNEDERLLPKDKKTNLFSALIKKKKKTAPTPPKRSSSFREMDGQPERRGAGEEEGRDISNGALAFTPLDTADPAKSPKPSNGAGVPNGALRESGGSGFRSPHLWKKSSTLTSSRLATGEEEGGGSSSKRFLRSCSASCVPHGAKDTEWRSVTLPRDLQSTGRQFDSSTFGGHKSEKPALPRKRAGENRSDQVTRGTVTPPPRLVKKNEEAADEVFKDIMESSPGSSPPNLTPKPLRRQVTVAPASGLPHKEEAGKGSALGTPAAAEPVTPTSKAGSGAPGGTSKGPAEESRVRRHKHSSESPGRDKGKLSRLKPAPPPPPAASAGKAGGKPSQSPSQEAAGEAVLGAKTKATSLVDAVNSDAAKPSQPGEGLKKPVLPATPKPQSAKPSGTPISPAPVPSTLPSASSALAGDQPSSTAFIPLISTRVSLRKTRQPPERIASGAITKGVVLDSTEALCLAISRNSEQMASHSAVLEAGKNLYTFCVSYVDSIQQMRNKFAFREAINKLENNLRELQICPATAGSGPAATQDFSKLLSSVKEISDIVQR

## O=C(/C=C/c1ccc(O)c(O)c1)O[C@@H]1C[C@](O)(C(=O)O)C[C@@H](O)[C@H]1O [chlorogenic acid]
[1]; Chl 25 μg/ml alone
  Concentration of Cytokines: IFN-γ: 19.4 pg/mL
  Concentration of Cytokines: IL-2: 6.8 pg/mL
  Concentration of Cytokines: IL-6: 781.9 pg/mL
[1]; [21]
  Concentration of Cytokines: IFN-γ: 13.8 pg/mL
  Concentration of Cytokines: IL-2: 2.5 pg/mL
  Concentration of Cytokines: IL-6: 1899.0 pg/mL
[1]; PHA and LPS stimulation
  production of IL-2, IFN-γ, and IL-6 by HPBMC after stimulation with PHA and LPS: significantly inhibited
[1]; no stimulation
  spontaneous production of IL-2, IFN-γ, and IL-6 by HPBMC: inhibits
[2]; Homo sapiens, in vitro, K562 cells, FIGS. 2C & 2D
  IC50: 27 µM
[2]; cell count, FIG. 2a-2c
  killing of K562 cells: higher killing activity of K562 cells compare to crude extract or fraction E

## O=C(/C=C/c1ccc(O)c(O)c1)O[C@@H]1C[C@](O)(C(=O)[O-])C[C@@H](O)[C@H]1O.[Na+] [sodium chlorogenate]
[3]
  apoptosis/proliferation of STI571-resistant K562 cells: induces apoptosis
K562 xenografts
  tumor growth of K562 xenografts: reduced the tumor growth in a dose dependent manner
[4]
  apoptosis: did not induce apoptosis
Normal PBMC
  apoptosis: remain virtually unaffected
Normal PBMC; listed as NaChl
  apoptosis: did not induce apoptosis
K562 cells [5]
  apoptosis: increase in apoptosis
[6]
  apoptosis: increase in apoptosis
[7]
  phosphorylation of Bcr-Abl protein tyrosine kinase: inhibits phosphorilation
[8]
  effect on Bcr-Abl negative CML patients PBMC: no effect; also recorded: without any effects
[9]
  killing of Bcr-Abl positive CML patients PBMC: active in killing; also recorded: destroys
[10]
  apoptosis by caspase 3 activation: not
K562 cells [11]
  apoptosis by caspase 3 activation: Apoptosis in K562 cells
PBMC of normal donors
  apoptosis by caspase 3 activation: not
[12]
  apoptosis by caspase 3 activation: Apoptosis
[1]; statement referring to Table II
  production of interferon gamma: significantly inhibits
K562 cells [13]
  DNA cell cycle: induces cell cycle arrest followed by breakdown of DNA
[14]
  DNA cell cycle: induces cell cycle arrest followed by breakdown of DNA
Molt-4 cells [15]
  Annexin V staining (confocal): not in Molt-4 cells
K562 cells [16]
  Annexin V staining (confocal): positive Annexin V staining
K562 cells [17]
  morphological changes in K562 cells: induces morphological changes (nuclear condensation)
Molt-4 cells [18]
  apoptosis: did not induce apoptosis
[19]
  apoptosis/proliferation of STI571-sensitive K562 cells: induces apoptosis
Molt-4 cells [20]
  apoptosis by caspase 3 activation: not in Molt-4 cells
Abl protein
  expression of Abl protein level: without affecting the expression
